Measurements from article PMC9166766 (Experimental & Molecular Medicine, 2022).
No end group written: not given here.

What was measured:
[1] = tested on: Jurkat T cells (PMA and ionomycin-induced gene expression); test: mRNA sequencing of activated Jurkat T cells; format: cell-based, human; settings: P+I 8 h
Experimental: We then extracted RNA from these cells. Construction of the cDNA library and next-generation sequencing was performed at LAS (Gimpo, Korea). We sequenced all samples on an Illumina NextSeq 500 system with 75 paired-end reads. For the RNA sequencing analysis, reads for each sample were aligned to the human genome (GRCh37/hg19 genome assembly) using STAR 2.4.0.1[25] with default settings. We used HOMER tools to quantify and normalize the defined genes in RefSeq transcripts. FPKM normalized genes were hierarchically clustered using Cluster3.0[26]. We visualized refined data with Java Treeview (http://jtreeview.sourceforge.net). We conducted gene ontology analysis of each cluster using the DAVID web tool (https://david.ncifcrf.gov). Finally, we visualized the expression levels of target genes using the Integrative Genomics Viewer (http://software.broadinstitute.org/software/igv). The raw data were submitted to the NCBI Gene Expression Omnibus under accession number GSE185561.
Fig. 3 The CABIN1 peptide inhibits T-cell activation. a Heatmap of altered genes affected by FK506 treatment or CABIN1 peptide expression upon T-cell activation. b Gene Ontology analysis of cluster III. c mRNA expression levels of genes included in cluster III. d qRT-PCR data of genes in c. The experiment was independently repeated at least three times, and the data are presented as the mean ± standard deviation. Statistical differences were determined using two-tailed Student’s t-test. *p < 0.05, **p < 0.01, ***p < 0.001, NC negative control.

[2] = tested on: Jurkat T cells (T-cell activation gene mRNA); test: Real-time quantitative PCR of activated Jurkat T cells; format: cell-based; settings: PMA and ionomycin
From the text: We collected Jurkat T cells with QIAzol Lysis Reagent (Qiagen) to extract total RNA. We reverse transcribed cDNAs from isolated RNA using AMV Reverse Transcriptase and random hexamers. We performed real-time quantitative PCR for each cDNA using TB Green® Premix Ex Taq™ (TaKaRa, Kusatsu, Japan) on a CFX Connect Real-time PCR Detection System (Bio-Rad, Hercules, CA, USA) and normalized the expression to that of 18 S rRNA or GAPDH.

tNFATC2 nuclear import = test: Nuclear localization of EGFP-tNFATC2 by confocal microscopy in Jurkat T cells; format: cell-based; settings: 40 nM PMA and 1 μM ionomycin 4 h, FK506 0.5 μM, n = 10-12
Experimental: We transfected Jurkat T cells with the pCAG-EGFP-tNFATC2-IRES-mCherry-peptide by electroporation. After two days, we pretreated these cells with 0.5 μM FK506 for 30 min. Then, we treated them with 40 nM PMA and 1 μM ionomycin under culture conditions for 4 h. Before imaging by a confocal laser scanning microscope (Nikon, Tokyo, Japan), we treated the cells with 10 μg/ml Hoechst 33342 (Invitrogen, Waltham, MA, USA) to stain nuclei. Colocalization analysis of mCherry and Hoechst was performed with ImageJ and its plugin JACoP to measure the Manders coefficient[23],[24].
Scale bar, 50 μm e Nuclear-localized tNFATC2 was measured by calculating the colocalization ratio between Hoechst (M1) and EGFP (M2).

Question: How did the PDGFA expression ([1]; NC 1.497, NC_P+I 26.809) turn out when “CABIN1-L-1-2: 10 amino acids from proline 2146 to proline 2155 of full-length CABIN1; expressed GST-, GAL4 DBD- or HA-mCherry-tagged (PEITVTPPTP; also: expressed GST-, GAL4 DBD- or HA-mCherry-tagged, end not given here)” was run?
Answer: 8.169 FPKM

Question: And the PHACTR2 expression ([1]; NC 1.659, NC_P+I 9.467)?
Answer: 2.791 FPKM

Question: And the CABP1 expression ([1]; NC 1.702, NC_P+I 5.834)?
Answer: 1.689 FPKM

Question: And the POU2AF1 expression ([1]; NC 1.84, NC_P+I 36.298)?
Answer: 2.971 FPKM

Question: And the SPRY1 expression ([1]; NC 2.079, NC_P+I 12.391)?
Answer: 4.901 FPKM

Question: And the GFOD1 expression ([1]; NC 2.283, NC_P+I 12.861)?
Answer: 6.312 FPKM

Question: And the DSTYK expression ([1]; NC 2.356, NC_P+I 7.198)?
Answer: 3.595 FPKM

Question: What about the FMNL2 expression ([1]; NC 2.395, NC_P+I 6.813) of the same substance?
Answer: 3.019 FPKM

Question: What about the ADORA2A expression ([1]; NC 2.492, NC_P+I 11.633) of the same substance?
Answer: 1.475 FPKM

Question: What about the CD27 expression ([1]; NC 2.525, NC_P+I 27.462) of the same substance?
Answer: 3.4 FPKM

Question: And the TNFRSF4 expression ([1]; NC 2.597, NC_P+I 31.683)?
Answer: 11.916 FPKM

Question: What about the REL expression ([1]; NC 2.654, NC_P+I 20.219) of the same substance?
Answer: 5.699 FPKM

Question: And the JAK2 expression ([1]; NC 2.788, NC_P+I 26.566)?
Answer: 8.45 FPKM

Question: And the LRRC8B expression ([1]; NC 2.89, NC_P+I 28.699)?
Answer: 4.298 FPKM

Question: What about the NPDC1 expression ([1]; NC 3.008, NC_P+I 8.759) of the same substance?
Answer: 5.64 FPKM

Question: And the CD27-AS1 expression ([1]; NC 3.088, NC_P+I 14.958)?
Answer: 4.613 FPKM

Question: What about the CST7 expression ([1]; NC 3.315, NC_P+I 14.15) of the same substance?
Answer: 3.175 FPKM

Question: And the TAGAP expression ([1]; NC 3.351, NC_P+I 128.498)?
Answer: 8.731 FPKM

Question: And the CD55 expression ([1]; NC 3.587, NC_P+I 39.451)?
Answer: 12.082 FPKM

Question: And the GTDC1 expression ([1]; NC 3.595, NC_P+I 10.378)?
Answer: 5.144 FPKM

Question: And the KCNK5 expression ([1]; NC 3.84, NC_P+I 14.865)?
Answer: 4.904 FPKM

Question: What about the MYO1D expression ([1]; NC 4.114, NC_P+I 11.118) of the same substance?
Answer: 5.995 FPKM

Question: And the RDH10 expression ([1]; NC 4.125, NC_P+I 19.889)?
Answer: 5.524 FPKM

Question: What about the COL27A1 expression ([1]; NC 4.149, NC_P+I 17.216) of the same substance?
Answer: 5.729 FPKM

Question: And the PLK3 expression ([1]; NC 4.432, NC_P+I 14.807)?
Answer: 7.036 FPKM

Question: What about the NFATC1 expression ([1]; NC 4.511, NC_P+I 15.287) of the same substance?
Answer: 3.916 FPKM

Question: What about the ASAP1 expression ([1]; NC 4.678, NC_P+I 18.37) of the same substance?
Answer: 9.052 FPKM

Question: What about the GRK5 expression ([1]; NC 5.451, NC_P+I 21.464) of the same substance?
Answer: 8.975 FPKM

Question: And the CCDC64 expression ([1]; NC 5.477, NC_P+I 33.545)?
Answer: 11.039 FPKM

Question: And the ATG14 expression ([1]; NC 5.727, NC_P+I 30.239)?
Answer: 11.252 FPKM

Question: What about the PELI1 expression ([1]; NC 5.755, NC_P+I 16.085) of the same substance?
Answer: 8.465 FPKM

Question: And the ARHGEF3 expression ([1]; NC 6.146, NC_P+I 31.337)?
Answer: 8.674 FPKM

Question: What about the PKIA expression ([1]; NC 6.444, NC_P+I 49.019) of the same substance?
Answer: 18.138 FPKM

Question: What about the LTBP4 expression ([1]; NC 7.304, NC_P+I 33.466) of the same substance?
Answer: 9.568 FPKM

Question: And the LAMP3 expression ([1]; NC 8.064, NC_P+I 31.61)?
Answer: 9.828 FPKM

Question: And the LAX1 expression ([1]; NC 8.344, NC_P+I 24)?
Answer: 7.578 FPKM

Question: What about the PTPN22 expression ([1]; NC 8.928, NC_P+I 45.38) of the same substance?
Answer: 5.119 FPKM

Question: And the VAMP1 expression ([1]; NC 9.566, NC_P+I 50.97)?
Answer: 14.752 FPKM

Question: And the NINJ1 expression ([1]; NC 10.319, NC_P+I 76.622)?
Answer: 54.452 FPKM

Question: What about the KCNK1 expression ([1]; NC 10.828, NC_P+I 36.893) of the same substance?
Answer: 13.139 FPKM

Question: What about the CD97 expression ([1]; NC 10.97, NC_P+I 49.481) of the same substance?
Answer: 21.496 FPKM

Question: And the FBXO34 expression ([1]; NC 11.735, NC_P+I 48.015)?
Answer: 18.386 FPKM

Question: And the TBC1D20 expression ([1]; NC 11.844, NC_P+I 35.808)?
Answer: 18.427 FPKM

Question: And the MIR6775 expression ([1]; NC 12.409, NC_P+I 50.527)?
Answer: 21.57 FPKM

Question: And the AGK expression ([1]; NC 14.395, NC_P+I 39.056)?
Answer: 14.306 FPKM

Question: What about the FYN expression ([1]; NC 14.671, NC_P+I 58.084) of the same substance?
Answer: 15.512 FPKM

Question: What about the MIR6821 expression ([1]; NC 17.553, NC_P+I 62.894) of the same substance?
Answer: 25.116 FPKM

Question: What about the NDFIP1 expression ([1]; NC 19.638, NC_P+I 54.615) of the same substance?
Answer: 24.432 FPKM

Question: And the TBC1D4 expression ([1]; NC 20.739, NC_P+I 73.749)?
Answer: 13.191 FPKM

Question: And the MAP2K3 expression ([1]; NC 21.676, NC_P+I 144.057)?
Answer: 43.237 FPKM

Question: What about the PTPN6 expression ([1]; NC 22.163, NC_P+I 77.092) of the same substance?
Answer: 20.806 FPKM

Question: And the FXYD5 expression ([1]; NC 25.643, NC_P+I 101.352)?
Answer: 42.856 FPKM

Question: What about the BCL2L1 expression ([1]; NC 31.375, NC_P+I 113.956) of the same substance?
Answer: 41.852 FPKM

Question: And the ATP6V1B2 expression ([1]; NC 33.172, NC_P+I 129.395)?
Answer: 60.661 FPKM

Question: What about the PIM3 expression ([1]; NC 37.434, NC_P+I 180.382) of the same substance?
Answer: 72.895 FPKM

Question: What about the PPIF expression ([1]; NC 58.328, NC_P+I 188.301) of the same substance?
Answer: 106.533 FPKM

Question: What about the “NINJ1 and ZP4 expression upon T-cell activation” value ([2]; Supplementary Fig. 5a, b) of the same substance?
Answer: unaffected

Question: What about the “RNA levels of T-cell activation genes (qRT-PCR) vs VIVIT peptide” value ([2]; at least three repeats) of the same substance?
Answer: reduced the RNA levels of these genes more efficiently than the VIVIT peptide

Question: What about the “proportion of nuclear-localized tNFATC2” value (tNFATC2 nuclear import) of the same substance?
Answer: slightly higher
